Measured values published in patent publication US9051351B2, “Hepatocyte growth factor mimics as therapeutic agents” (Washington State University, priority 2011, dated 2015).
Entries after “also recorded” stand apart in the source; their conditions may differ. Where a SMILES comes first, the peptide text is derived from it. [ ]: non-standard residue; d: D form. The star is where a group is joined. Hexanoyl = CCCCCC(=O)*; Ahx = NCCCCCC(=O)O

Key:
[1] = tested on: hippocampal neurons; assay: Immunocytochemistry: percent correlation of spines to synaptic markers; assay type: cell-based, rat; conditions: 10^−12 M, 5 days
Description: (§1) Transfected neurons were treated, fixed and stained. Briefly, cells were permeablized with 0.1% Triton X-100 detergent (Bio-Rad; Hercules, Calif.) for 10 minutes. An 8% bovine serum albumin (Intergen Company; Burlington, Mass.) in PBS was used to prevent non-specific binding for one hour at R.T.; Primary antibody incubations were at a 1:2500 dilution (see below) in 1% BSA in PBS at 4° C. overnight. Secondary antibody, 1:3000 Alexafluor 488 goat-anti-mouse (Invitrogen: Carlsbad, Calif.) was applied for two hours at room temperature. Coverslips were mounted with ProLong Gold anti-fade reagent (Invitrogen; Carlsbad, Calif.) and all washes were done with PBS. Imaging and analysis were performed as described above. For presynaptic excitatory transmission the VGLUT1 (Synaptic Systems, Goettingen, Germany) marker (Balschun, Moechars et al.) was employed and for general presynaptic transmission synapsin1 (Synaptic Systems, Goettingen, Germany) (Ferreira and Rapoport 2002) was applied. A postsynaptic function was established by PSD-95 (Milipore, Billerica, Mass.) (El-Husseini, Schnell et al. 2000). In each instance the total number of spines was counted for the treatment groups, control, Nle1-AngIV and Dihexa, to ensure an active phenotype. The total number of actin enriched spines adjacent to VGLUT1 or Synapsin were counted and converted to a percentage as the percent correlation of treatment-induced spines to presynaptic markers is a strong indicator of ability to transmit excitatory signals.
as §1, with “fixed and stained as previously described in Chapter two. Briefly, cells” for “fixed and stained. Briefly, cells”, “enriched spines (red) adjacent to” for “enriched spines adjacent to”
Transfected neurons were treated and fixed as described above. Following fixation, cells were rinsed in PBS and permeabilized with 0.1% Triton® X-100 detergent (Bin-Rad; Hercules, Calif.), followed by two rinses in PBS and blocked with 8% bovine serum albumin (Intergen Company; Burlington, Mass.) in PBS for 1 h. […]

[2] = tested on: c-Met; assay: Augmentation of HGF-dependent c-Met phosphorylation in HEK293 cells; assay type: cell-based, human; conditions: HEK 293 cells, HGF+/−Dihexa, 30 minutes
Description: HGF mimetic activity was typically assessed by one or both of two methods: augmentation of HGF-dependent c-Met phosphorylation in HEK293 cells, or 2) augmentation of HGF-dependent cell scattering in MDCK cells. All the compounds in Family one were tested using the c-Met phosphorylation assay. […]
Human embryonic kidney cells 293 (HEK293), Madin Darby canine kidney cells (MDCK), and B16F10 murine melanoma cells were grown in DMEM, 10% fetal bovine serum (FBS). Cells were grown to 90-100% confluency before use. For most but not all studies HEK and MDCK cells were serum starved for 24 hours prior to the initiation of drug treatment.
HEK293 cells were seeded in 6 well tissue culture plates and grown to 95% confluency in DMEM containing 10% FBS. […] The lysate was clarified by centrifugation at 15,000 g for 15 minutes, protein concentrations were determined using the BCA total protein assay, and then appropriate volumes of the lysates were diluted with 2× reducing Laemmli buffer and heated for ten minutes at 95° C. […] Proteins were visualized using the Supersignal West Pico Chemiluminescent Substrate system (Pierce, Fenton, Mo.) and molecular weights determined by comparison to protein ladders (BenchMark, Invitrogen; and Kaleidoscope, BioRad). Images were digitized and analyzed using a UVP phosphoimager.

[3] = molecular target: T1, human HGF (Homo sapiens, UniProt P14210); assay: HGF dimerization (PAGE, silver staining); assay type: biochemical; conditions: 30 minutes, heparin
T1 construct: purchased R&D Systems (Minneapolis, Minn.)
Description: HGF dimerization was assessed using PAGE followed by silver staining (Kawas et al., 2011). Human HGF at a concentration of 0.08 ng/μl with or without 6-AH analogs was incubated with heparin at a final concentration of 5 μg/ml. Loading buffer was then added to each sample and the mixture separated by native PAGE using gradient Criterion XT precast gels (4-12% Bis-Tris; Biorad Laboratories, Hercules, Calif.). Next the gel was silver stained for the detection of the HGF monomers and dimers. Bands were quantitated from digital images using a UVP phosphoimager (Upland, Calif.).

T1 sequence (P14210 32-728): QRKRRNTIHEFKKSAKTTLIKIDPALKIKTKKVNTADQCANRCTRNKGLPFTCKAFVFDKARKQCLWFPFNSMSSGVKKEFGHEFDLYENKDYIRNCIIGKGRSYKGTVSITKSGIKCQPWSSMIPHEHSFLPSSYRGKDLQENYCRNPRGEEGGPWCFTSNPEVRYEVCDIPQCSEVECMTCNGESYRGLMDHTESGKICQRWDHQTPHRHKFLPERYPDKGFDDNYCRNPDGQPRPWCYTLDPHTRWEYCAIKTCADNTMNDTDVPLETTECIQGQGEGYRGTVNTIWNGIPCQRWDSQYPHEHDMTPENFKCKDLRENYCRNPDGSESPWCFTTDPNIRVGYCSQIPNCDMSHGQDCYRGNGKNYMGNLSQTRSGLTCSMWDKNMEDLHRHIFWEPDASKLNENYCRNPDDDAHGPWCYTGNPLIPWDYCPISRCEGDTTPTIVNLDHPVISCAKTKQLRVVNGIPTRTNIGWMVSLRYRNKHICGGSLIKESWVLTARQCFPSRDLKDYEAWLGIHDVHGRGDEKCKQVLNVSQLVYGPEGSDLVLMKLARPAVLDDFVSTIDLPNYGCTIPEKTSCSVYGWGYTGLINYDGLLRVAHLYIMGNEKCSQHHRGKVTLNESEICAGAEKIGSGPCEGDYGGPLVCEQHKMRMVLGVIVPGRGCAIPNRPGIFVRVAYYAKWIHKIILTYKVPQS

CCCCCC(=O)N[C@@H](Cc1ccc(O)cc1)C(=O)N[C@H](C(=O)NCCCCCC(N)=O)[C@@H](C)CC [Dihexa, N-hexanoic-Tyr-Ile-(6)-aminohexanoic amide] (Hexanoyl-Tyr-Ile-[Ahx]-NH2)
percent correlation of treatment-induced spines to VGLUT1, Synapsin or PSD-95 vs control [1]: did not differ from control treated neurons in the percent correlation | Number of spines/50 μm ([1]; PSD-95 study): 43 spines/50 μm | Number of spines/50 μm ([1]; Synapsin study): 37 spines/50 μm | Number of spines/50 μm ([1]; VGLUT1 study): 44 spines/50 μm | augmentation of HGF activation (phosphorylation) of c-Met [2]: dramatically augment the ability of HGF to activate c-Met; also recorded: markedly augments the ability of HGF to signal to c-Met; also recorded: work synergistically to activate c-Met | HGF dimerization in the presence of Dihexa [3]: blocking HGF dimerization; also recorded: blocks HGF dimerization
